# In US8471004B2, “Bicyclic compounds” (Hoffman-La Roche Inc., priority 2009, dated 2013):
# Target: T1, human chemokine receptor 2 isoform B (Homo sapiens, UniProt P41597)
# T1 construct: host or cells: CHOK1-CCR2B-A5 (CHO-K1)
# T1 sequence (P41597 1-360 isoform P41597-2): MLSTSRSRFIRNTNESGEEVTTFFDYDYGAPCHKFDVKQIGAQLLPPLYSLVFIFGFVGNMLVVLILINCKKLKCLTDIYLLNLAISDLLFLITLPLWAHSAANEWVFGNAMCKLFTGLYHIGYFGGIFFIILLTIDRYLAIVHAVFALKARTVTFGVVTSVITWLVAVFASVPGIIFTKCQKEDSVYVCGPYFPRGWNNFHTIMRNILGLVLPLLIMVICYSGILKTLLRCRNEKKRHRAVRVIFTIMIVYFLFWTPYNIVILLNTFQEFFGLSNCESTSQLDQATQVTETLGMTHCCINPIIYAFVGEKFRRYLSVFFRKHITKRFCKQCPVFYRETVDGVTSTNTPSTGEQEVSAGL
# Test: Calcium mobilization assay (CHOK1-CCR2B-A5 cells, FLIPR, MCP-1 stimulated)
# Type: cell-based
# Settings: Ca mobilisation assay for CCR2, antagonist activity, 50% inhibition of specific calcium increases after 20 nM MCP-1
# Procedure: CHOK1-CCR2B-A5 cells (from Euroscreen) stably overexpressing the human chemokine receptor 2 isoform B were cultured in Nutrient Hams F12 medium supplemented with 5% FBS, 100 U/ml penicillin, 100 μg/ml streptomycin, 400 μg/ml G418 and 5 μg/ml puromycin.
# For the assay cells were grown overnight in 384-well black clear flat bottom polystyrene plates (Costar) at 37° C. at 5% CO2. After washing with DMEM, 20 mM Hepes, 2.5 mM probenecid, 0.1% BSA (DMEM assay buffer) cells were loaded with 4 μM Fluo-4 in the same DMEM assay buffer for 2 hours at 30° C. Excess dye was removed and cells were washed with DMEM assay buffer. 384-well compound plates were prepared with DMEM assay buffer/0.5% DMSO with or without various concentrations of test compounds. Usually compounds were tested for agonist and antagonist activity.
# Test compounds were added to the assay plate and agonist activity was monitored as fluorescence for 80 seconds with a FLIPR (488 nm excitation; 510-570 nm emission; Molecular Devices). After 20-30 min. of incubation at 30° C., 20 nM MCP-1 (R&D; Roche) was added and fluorescence was monitored again for 80 seconds. Increases in intracellular calcium are reported as maximum fluorescence after agonist exposure minus basal fluorescence before exposure. Antagonist activity is indicated as inhibitor concentration required for 50% inhibition of specific calcium increases.
row,Compound,IC50 [nM]
1,"C[C@H]1C(=O)N2[C@@H](CCC(=O)N3CCC4(CC4)[C@H](O)C3)CC[C@H]2CN1C(=O)Nc1ccc(Cl)c(Cl)c1 [Example 42, (3S,6R,8aS)-6-[3-((S)-4-Hydroxy-6-aza-spiro[2.5]oct-6-yl)-3-oxo-propyl]-3-methyl-4-oxo-hexahydro-pyrrolo[1,2-a]pyrazine-2-carboxylic acid (3,4-dichloro-phenyl)-amide]",40.4
2,"C[C@H]1C(=O)N2[C@@H](CCC(=O)N3CCC4(CC4)[C@H](O)C3)CC[C@H]2CN1C(=O)Nc1ccc(C(F)(F)F)c(Cl)c1 [Example 43, (3S,6R,8aS)-6-[3-((S)-4-Hydroxy-6-aza-spiro[2.5]oct-6-yl)-3-oxo-propyl]-3-methyl-4-oxo-hexahydro-pyrrolo[1,2-a]pyrazine-2-carboxylic acid (3-chloro-4-trifluoromethyl-phenyl)-amide]",20.5
3,"C[C@H]1C(=O)N2[C@@H](CCCN3CC(F)(F)C(F)(F)C3)CC[C@H]2CN1C(=O)Nc1ccc(Cl)c(Cl)c1 [Example 44, (3S,6S,8aS)-3-Methyl-4-oxo-6-[3-(3,3,4,4-tetrafluoro-pyrrolidin-1-yl)-propyl]-hexahydro-pyrrolo[1,2-a]pyrazine-2-carboxylic acid (3,4-dichloro-phenyl)-amide]",473
4,"C[C@H]1C(=O)N2[C@@H](CCCN3CCC(F)(F)C3)CC[C@H]2CN1C(=O)Nc1ccc(Cl)c(Cl)c1 [Example 45, (3S,6S,8aS)-6-[3-(3,3-Difluoro-pyrrolidin-1-yl)-propyl]-3-methyl-4-oxo-hexahydro-pyrrolo[1,2-a]pyrazine-2-carboxylic acid (3,4-dichloro-phenyl)-amide]",200
5,"C[C@H]1C(=O)N2[C@@H](CCCN3CCC(F)(F)CC3)CC[C@H]2CN1C(=O)Nc1ccc(Cl)c(Cl)c1 [Example 46, (3S,6S,8aS)-6-[3-(4,4-Difluoro-piperidin-1-yl)-propyl]-3-methyl-4-oxo-hexahydro-pyrrolo[1,2-a]pyrazine-2-carboxylic acid (3,4-dichloro-phenyl)-amide]",26.4
6,"C[C@H]1C(=O)N2[C@@H](CCCN3CCCC(F)(F)C3)CC[C@H]2CN1C(=O)Nc1ccc(Cl)c(Cl)c1 [Example 47, (3S,6S,8aS)-6-[3-(3,3-Difluoro-piperidin-1-yl)-propyl]-3-methyl-4-oxo-hexahydro-pyrrolo[1,2-a]pyrazine-2-carboxylic acid (3,4-dichloro-phenyl)-amide]",67.4
7,"O=C(Nc1ccc(Cl)c(Cl)c1)N1CCC(=O)N2[C@@H](CCN3CCC4(CC4)[C@H](O)C3)CC[C@H]2C1 [Example 49, (7R,9aS)-7-[2-((S)-4-Hydroxy-6-aza-spiro[2.5]oct-6-yl)-ethyl]-5-oxo-hexahydro-pyrrolo[1,2-a][1,4]diazepine-2-carboxylic acid (3,4-dichloro-phenyl)-amide]",144
8,"C[C@H]1C(=O)N2[C@@H](CCC(=O)N3CCC4(CC4)[C@H](O)C3)COC[C@H]2CN1C(=O)Nc1ccc(Cl)c(Cl)c1 [Example 51, (4S,7S,9aR)-4-[3-((S)-4-Hydroxy-6-aza-spiro[2.5]oct-6-yl)-3-oxo-propyl]-7-methyl-6-oxo-hexahydro-pyrazino[2,1-c][1,4]oxazine-8-carboxylic acid (3,4-dichloro-phenyl)-amide]",86.9
9,"C[C@H]1C(=O)N2[C@@H](CCC(=O)N3CCC4(CC4)[C@H](O)C3)COC[C@H]2CN1C(=O)Nc1ccc(C(F)(F)F)c(Cl)c1 [Example 52, (4S,7S,9aR)—N-(3-chloro-4-(trifluoromethyl)phenyl)-4-(3-((S)-4-hydroxy-6-azaspiro[2.5]octan-6-yl)-3-oxopropyl)-7-methyl-6-oxohexahydropyrazino[2,1-c][1,4]oxazine-8(1H)-carboxamide]",14.7
